# Key:
# Assay type in all cases: physicochemical
# [1] = Acid destruction (0.1 mol/L HCl), related substances by HPLC
# Protocol: Acid destruction: 50 mg of sample weighted accurately was added into measuring flask of 100 mL, and 10 mL 0.1 mol/L HCl solution was added. After standing at room temperature for 1 hour, an equal amount of 0.1 mol/L NaOH solution was added for neutralization. Then the mixture was diluted with mobile phase to scale and shook to be homogeneous, and determined by HPLC.
# (§1) HPLC conditions and system applicability: octadecylsilane bonded silica as the filler; 0.01 mol/L of potassium dihydrogen phosphate (adjusted to pH 3.5 by phosphoric acid)-methanol-acetonitrile (80:15:5) as the mobile phase; detection wavelength was 240 nm; the number of theoretical plates should be not less than 2000, calculated according to the peak of lenalidomide. The resolution of the peak of 3-(4-amino-1-oxo-1,3-dihydro-2H-isoindole-2-yl)-piperidine-2,6-dione from the peaks of adjacent impurities should meet requirements.
# (§2) Determination method: sample was dissolved in mobile phase to be the solution containing 0.5 mg per 1 mL. 20 μL of such solution was injected into liquid chromatograph and chromatogram was recorded until fourfold the retention time of major component peak. If there were impurities peaks in the chromatogram of sample solution, total impurities and sole impurity were calculated by normalization method on the basis of peak area.
# [2] = Oxidation destruction (30% H2O2), related substances by HPLC
# Protocol: Oxidation destruction: 50 mg of sample weighted accurately was added into measuring flask of 100 mL, and 10 mL 30% H2O2 was added. After standing at room temperature for 2 hour, the mixture was diluted with mobile phase to scale and shook to be homogeneous, and determined by HPLC.
# as §1, §2
# [3] = Destruction test: impurities in raw materials before destruction (HPLC)
# Description: The methods of destruction experiment of the Polymorph I of this invention (hereinafter referred to as “Polymorph I”) contrasting with the Polymorph A and B of 3-(4-amino-1-oxo-1,3-dihydro-2H-isoindole-2-yl)-piperidine-2,6-dione prepared by the method in CN 1871003A (hereinafter referred to as “Polymorph A” and “polymorph B”) and results of stability are followed:
# as §1, §2
# [4] = 0.1 mol/L HCl, room temperature, 1 hour
# [5] = 30% H2O2, room temperature, 2 hour
smiles,measurement,setting,value
"Nc1cccc2c1CN(C1CCC(=O)NC1=O)C2=O (single isomer, unassigned) [Polymorph I, 3-(4-amino-1-oxo-1,3-dihydro-2H-isoindole-2-yl)-piperidine-2,6-dione]","Major impurity, peak tR4.717-4.737",[1]; [4],0.20%
same,"Major impurity, peak tR7.367-7.381",[1]; [4],0.41%
same,"Major impurity, peak tR11.067-11.100",[1]; [4],0.01%
same,Total impurities generated by 0.1 mol/L acid destruction for 1 hour,[1]; [4],impurities: 0.62%
same,Chemical stability (in words),[1]; acid condition / 0.1 mol/L diluted HCl solution,better stability
same,"Major impurity, peak tR5.649-5.660",[2]; [5],0.09%
same,"Major impurity, peak tR10.372-10.401",[2]; [5],0.03%
same,"Major impurity, peak tR32.279-32.318",[2]; [5],0.01%
same,"Major impurity, peak tR35.063-35.098",[2]; [5],0.02%
same,Total impurities generated by oxidation destruction,[2]; [5],impurities: 0.16%
same,Chemical stability (in words),[2]; oxidating condition / oxidation destroy experiment,better stability
same,"Major impurity, peak tR5.872-5.948",[3],0.01%
same,"Major impurity, peak tR10.961-11.165",[3],0.03%
same,Total impurities in raw materials before destruction,[3]; HPLC peak area normalization,impurities: 0.04%

# — patent publication US9101620B2, “Polymorph of 3-(substituteddihydroisoindolinone-2-yl)-2,6-dioxopiperidine, and pharmaceutical compositions thereof” (Nanjing Cavendish Bio-Engineering Technology Co., Ltd., priority 2009, dated 2015)
